# Reference: patent publication US20240254103A9, “NOVEL PYRIMIDINE DERIVATIVE, AND COMPOSITION FOR PREVENTING OR TREATING NEURODEGENERATIVE DISEASES AND CANCER, COMPRISING SAME” (WHAN IN PHARMACEUTICAL CO., LTD., priority 2020, published 2024)
# Target: T1, wild-type LRRK2 (Homo sapiens, UniProt Q5S007)
# T1 construct: DNA tag for qPCR detection (not a peptide; the protein part that carries it is not described); made in house; host or cells: HEK 293 cells (the same paragraph also describes T7 phage grown in E. coli BL21)
# Assay: Inhibitory activity against LRRK2: competition binding to ligand-affinity beads, DNA-tagged kinase quantitated by qPCR
# Conditions: % of ctrl; for remaining binding at 0.01 µM: 10 nM compound, read-out: LRRK2(WT) Remaining kinase activity(%) at 10 nM; for remaining binding at 0.05 µM: 50 nM compound, read-out: LRRK2(WT) Remaining kinase activity(%) at 50 nM
# Protocol: Representative compounds synthesized in Example 1 were assayed for inhibitory activity against wild-type LRRK2 and mutant LRRK2 (G2019S), and the results are summarized in Tables 2 and 3. In brief, a T7 phase strain carrying the wild-type kinase consisting of amino acid residues from H970 to E2527 of human-derived LRRK2 (Accession no. NP_940980.3) or a T7 phase strain carrying the G2019S mutation kinase was infected into E. coli strain BL21 which was then grown until log phase. After infection with T7 phases (multiplicity of infection=0.4), the cells were cultured at 32° C. for 90-150 minutes while shaking. Then, E. coli lysates were centrifuged (6,000×g) and the supernatant was filtered through a 0.2-μm filter. The kinases were produced in HEK 293 cells. In this regard, DNA was tagged to obtain DNA-tagged kinases for qPCR detection. For use in analyzing the kinases, affinity resins were prepared by treating streptavidin-coated magnetic beads with biotinylated small molecule ligands at room temperature for 30 minutes. Then, the liganded beads were blocked with an excess of biotin and washed with a blocking buffer (SeaBlock (Pierce), 1% BSA, 0.05% Tween 20, 1 mM DTT) to remove unbound ligands and thus to reduce the binding of non-specific phages. […] After one hour of incubation, the affinity beads were washed with a wash buffer (1×PBS, 0.05% Tween 20), resuspended in an elution buffer (1×PBS, 0.05% Tween 20, 0.5 μM non-biotinylated affinity ligand), and incubated at room temperature for 30 minutes while shaking. Afterwards, concentrations of wild-type LRRK2 and mutant LRRK2 (G2019S) in the eluted samples were quantitated by qPCR. Activity values are expressed as percentages relative to the control (% of ctrl). The compounds used in the activity assay were prepared into 40× stocks in 100% DMSO. The stocks were directly diluted during analysis procedures.
# Table 2 includes inhibitory activities of the representative compounds of the present disclosure at 100 nM against wild-type LRRK2 and mutant LRRK2 (G2019S) while Table 3 includes inhibitory activities of the representative compounds at 10 nM and 50 nM against wild-type LRRK2. (+++ less than 10%; ++ less than 30%; + less than 50%; −50% or higher)
# T1 sequence (Q5S007 970-2527): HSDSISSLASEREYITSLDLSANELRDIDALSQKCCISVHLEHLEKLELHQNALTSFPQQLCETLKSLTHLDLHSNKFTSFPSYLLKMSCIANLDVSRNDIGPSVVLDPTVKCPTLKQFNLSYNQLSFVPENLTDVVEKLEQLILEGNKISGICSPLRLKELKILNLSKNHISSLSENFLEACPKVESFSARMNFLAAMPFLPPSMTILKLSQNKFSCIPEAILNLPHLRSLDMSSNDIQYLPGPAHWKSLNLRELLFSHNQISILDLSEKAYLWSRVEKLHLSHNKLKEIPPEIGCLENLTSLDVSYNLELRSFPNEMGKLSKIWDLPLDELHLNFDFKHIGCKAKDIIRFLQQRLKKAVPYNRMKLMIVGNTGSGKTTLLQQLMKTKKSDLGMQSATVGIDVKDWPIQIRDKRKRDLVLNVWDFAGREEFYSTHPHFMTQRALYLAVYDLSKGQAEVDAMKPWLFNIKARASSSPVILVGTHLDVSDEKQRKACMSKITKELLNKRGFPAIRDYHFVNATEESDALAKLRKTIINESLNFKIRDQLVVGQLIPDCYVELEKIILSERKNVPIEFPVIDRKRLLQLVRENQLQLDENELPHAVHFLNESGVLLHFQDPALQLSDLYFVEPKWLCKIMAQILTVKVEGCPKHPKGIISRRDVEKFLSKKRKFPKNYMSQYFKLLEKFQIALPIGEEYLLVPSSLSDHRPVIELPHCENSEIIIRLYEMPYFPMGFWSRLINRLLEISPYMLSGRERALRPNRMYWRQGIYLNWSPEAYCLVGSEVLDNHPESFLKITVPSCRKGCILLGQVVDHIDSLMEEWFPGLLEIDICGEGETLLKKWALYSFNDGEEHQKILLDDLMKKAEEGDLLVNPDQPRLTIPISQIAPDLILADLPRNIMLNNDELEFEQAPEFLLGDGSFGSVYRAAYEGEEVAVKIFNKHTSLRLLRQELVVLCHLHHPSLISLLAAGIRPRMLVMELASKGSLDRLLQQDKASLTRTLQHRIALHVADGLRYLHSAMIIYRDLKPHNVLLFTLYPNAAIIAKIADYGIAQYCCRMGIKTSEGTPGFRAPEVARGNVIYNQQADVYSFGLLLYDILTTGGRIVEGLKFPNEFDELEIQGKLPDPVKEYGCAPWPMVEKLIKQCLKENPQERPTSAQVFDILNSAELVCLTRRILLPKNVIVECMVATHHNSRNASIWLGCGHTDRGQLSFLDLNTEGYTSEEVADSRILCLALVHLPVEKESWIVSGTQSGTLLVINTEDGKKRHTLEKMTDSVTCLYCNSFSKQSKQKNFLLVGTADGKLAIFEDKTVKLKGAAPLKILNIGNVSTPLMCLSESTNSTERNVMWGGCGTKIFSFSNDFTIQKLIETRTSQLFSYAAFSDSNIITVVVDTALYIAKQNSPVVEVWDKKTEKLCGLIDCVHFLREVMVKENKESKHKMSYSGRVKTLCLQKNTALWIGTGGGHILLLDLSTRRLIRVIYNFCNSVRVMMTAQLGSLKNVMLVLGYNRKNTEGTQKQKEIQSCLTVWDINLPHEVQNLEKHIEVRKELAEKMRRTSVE
remaining binding at 0.01 µM [%],remaining binding at 0.05 µM [%],Structure (SMILES)
< 50,< 10,"COc1cc(C(=O)NC2CCN(C)CC2)ccc1Nc1ncc(Cl)c(-c2cnn(C(C)C)c2)n1 [Compound 60, 4-((5-chloro-4-(1-isopropyl-1H-pyrazol-4-yl)pyrimidin-2-yl)amino)-3-methoxy-N-(1-methylpiperidin-4-yl)benzamide]"
< 50,< 30,"COc1cc(C(=O)N2CCN(C)CC2)ccc1Nc1ncc(Cl)c(-c2cnn(C)c2)n1 [Compound 61, (4-((5-chloro-4-(1-methyl-1H-pyrazol-4-yl)pyrimidin-2-yl)amino)-3-methoxyphenyl)(4-methylpiperazin-1-yl)methanone]"
< 30,< 10,"COc1cc(C(=O)N2CCN(C)CC2)ccc1Nc1ncc(Cl)c(-c2cnn(C(C)C)c2)n1 [Compound 62, (4-((5-chloro-4-(1-isopropyl-1H-pyrazol-4-yl)pyrimidin-2-yl)amino)-3-methoxyphenyl)(4-methylpiperazin-1-yl)methanone]"
< 30,< 10,"COc1cc(C(=O)N2CCN(C(C)C)CC2)ccc1Nc1ncc(Cl)c(-c2cnn(C(C)C)c2)n1 [Compound 64, (4-((5-chloro-4-(1-isopropyl-1H-pyrazol-4-yl)pyrimidin-2-yl)amino)-3-methoxyphenyl)(4-isopropylpiperazin-1-yl)methanone]"
< 50,< 30,"COc1cc(C(=O)N2CCC(C(C)(C)O)CC2)ccc1Nc1ncc(Cl)c(-c2cnn(C(C)C)c2)n1 [Compound 70, (4-((5-chloro-4-(1-isopropyl-1H-pyrazol-4-yl)pyrimidin-2-yl)amino)-3-methoxyphenyl)(4-(2-hydroxypropan-2-yl)piperidin-1-yl)methanone]"
< 50,< 30,"COc1cc(C(=O)N2CCC3(CC2)COC3)ccc1Nc1ncc(Cl)c(-c2cnn(C(C)C)c2)n1 [Compound 71, (4-((5-chloro-4-(1-isopropyl-1H-pyrazol-4-yl)pyrimidin-2-yl)amino)-3-methoxyphenyl)(2-oxa-7-azaspiro[3.5]nonan-7-yl)methanone]"
< 50,< 30,"COc1cc(C(=O)N2CC(N3CCOCC3)C2)ccc1Nc1ncc(Cl)c(-c2cnn(C(C)C)c2)n1 [Compound 73, (4-((5-chloro-4-(1-isopropyl-1H-pyrazol-4-yl)pyrimidin-2-yl)amino)-3-methoxyphenyl)(3-morpholinoazetidin-1-yl)methanone]"
< 50,< 10,"COc1cc(C(=S)N2CCOCC2)ccc1Nc1ncc(Cl)c(-c2cnn(C(C)C)c2)n1 [Compound 74, (4-((5-chloro-4-(1-isopropyl-1H-pyrazol-4-yl)pyrimidin-2-yl)amino)-3-methoxyphenyl)(morpholino)methanethione]"
< 50,< 30,"COc1cc(C(=O)N2CCC(OC)CC2)ccc1Nc1ncc(Cl)c(-c2cnn(C(C)C)c2)n1 [Compound 76, (4-((5-chloro-4-(1-isopropyl-1H-pyrazol-4-yl)pyrimidin-2-yl)amino)-3-methoxyphenyl)(4-methoxypiperidin-1-yl)methanone]"
< 50,< 30,"COc1cc(C(=O)N2CCC3(CCOCC3)CC2)ccc1Nc1ncc(Cl)c(-c2cnn(C(C)C)c2)n1 [Compound 77, (4-((5-chloro-4-(1-isopropyl-1H-pyrazol-4-yl)pyrimidin-2-yl)amino)-3-methoxyphenyl)(3-oxa-9-azaspiro[5.5]undecan-9-yl)methanone]"
< 50,< 10,"COc1cc(C(=O)N2CCN(C(C)=O)CC2)ccc1Nc1ncc(Cl)c(-c2cnn(C(C)C)c2)n1 [Compound 78, 1-(4-(4-((5-chloro-4-(1-isopropyl-1H-pyrazol-4-yl)pyrimidin-2-yl)amino)-3-methoxybenzoyl)piperazin-1-yl)ethan-1-one]"
< 50,< 10,"COc1cc(C(=O)N2CCC(S(C)(=O)=O)CC2)ccc1Nc1ncc(Cl)c(-c2cnn(C(C)C)c2)n1 [Compound 79, (4-((5-chloro-4-(1-isopropyl-1H-pyrazol-4-yl)pyrimidin-2-yl)amino)-3-methoxyphenyl)(4-(methylsulfonyl)piperidin-1-yl)methanone]"
< 50,< 30,"COc1cc(C(=O)NC2CCOCC2)ccc1Nc1ncc(Cl)c(-c2cnn(C(C)C)c2)n1 [Compound 80, 4-((5-chloro-4-(1-isopropyl-1H-pyrazol-4-yl)pyrimidin-2-yl)amino)-3-methoxy-N-(tetrahydro-2H-pyran-4-yl)benzamide]"
< 50,< 30,"COc1cc(C(=O)NC2CC2)ccc1Nc1ncc(Cl)c(-c2cnn(C(C)C)c2)n1 [Compound 82, 4-((5-chloro-4-(1-isopropyl-1H-pyrazol-4-yl)pyrimidin-2-yl)amino)-N-cyclopropyl-3-methoxybenzamide]"
< 50,< 30,"COc1cc(C(=O)N2CCS(=O)(=O)CC2)ccc1Nc1ncc(Cl)c(-c2cnn(C(C)C)c2)n1 [Compound 84, (4-((5-chloro-4-(1-isopropyl-1H-pyrazol-4-yl)pyrimidin-2-yl)amino)-3-methoxyphenyl)(1,1-dioxidothiomorpholino)methanone]"
< 50,< 30,"COc1cc(C(=O)N2CCN(C)CC2)ccc1Nc1ncc(Cl)c(-c2cnn(C(C)(C)C)c2)n1 [Compound 85, (4-((4-(1-(tert-butyl)-1H-pyrazol-4-yl)-5-chloropyrimidin-2-yl)amino)-3-methoxyphenyl)(4-methylpiperazin-1-yl)methanone]"
< 50,< 30,"COc1cc(C(=O)N2CCN3CCCC3C2)ccc1Nc1ncc(Cl)c(-c2cnn(C(C)C)c2)n1 (stereo not shown) [Compound 87, (4-((5-chloro-4-(1-isopropyl-1H-pyrazol-4-yl)pyrimidin-2-yl)amino)-3-methoxyphenyl)(hexahydropyrrolo[1,2-a]pyrazin-2(1H)-yl)methanone]"
< 50,< 10,"COc1cc(C(=O)N2CCN(C(C)C)CC2)ccc1Nc1ncc(Cl)c(-c2cnn(C(C)(C)C)c2)n1 [Compound 88, (4-((4-(1-(tert-butyl)-1H-pyrazol-4-yl)-5-chloropyrimidin-2-yl)amino)-3-methoxyphenyl)(4-isopropylpiperazin-1-yl)methanone]"
≥ 50,< 30,"COc1cc(C(=O)N2C[C@H]3CC[C@@H](C2)O3)ccc1Nc1ncc(Cl)c(-c2cnn(C(C)C)c2)n1 [Compound 89, ((1R,5S)-8-oxa-3-azabicyclo[3.2.1]octan-3-yl)(4-((5-chloro-4-(1-isopropyl-1H-pyrazol-4-yl)pyrimidin-2-yl)amino)-3-methoxyphenyl)methanone]"
≥ 50,< 30,"COc1cc(C(=O)N2CC3(COC3)C2)ccc1Nc1ncc(Cl)c(-c2cnn(C(C)C)c2)n1 [Compound 90, (4-((5-chloro-4-(1-isopropyl-1H-pyrazol-4-yl)pyrimidin-2-yl)amino)-3-methoxyphenyl)(2-oxa-6-azaspiro[3.3]heptan-6-yl)methanone]"
≥ 50,< 30,"COc1cc(C(=O)NC2CCC(O)CC2)ccc1Nc1ncc(Cl)c(-c2cnn(C(C)C)c2)n1 (stereo not shown) [Compound 91, 4-((5-chloro-4-(1-isopropyl-1H-pyrazol-4-yl)pyrimidin-2-yl)amino)-N-((1r,4r)-4-hydroxycyclohexyl)-3-methoxybenzamide]"
< 50,< 10,"COc1cc(C(=O)NC2CCC(N(C)C)CC2)ccc1Nc1ncc(Cl)c(-c2cnn(C(C)C)c2)n1 (stereo not shown) [Compound 93, 4-((5-chloro-4-(1-isopropyl-1H-pyrazol-4-yl)pyrimidin-2-yl)amino)-N-(4-(dimethylamino)cyclohexyl)-3-methoxybenzamide]"
< 30,< 10,"COc1cc(C(=O)N2CCC(N(C)C)CC2)ccc1Nc1ncc(Cl)c(-c2cnn(C(C)C)c2)n1 [Compound 94, (4-((5-chloro-4-(1-isopropyl-1H-pyrazol-4-yl)pyrimidin-2-yl)amino)-3-methoxyphenyl)(4-(dimethylamino)piperidin-1-yl)methanone]"
